Assay in all cases: MIC against extended fungal panel
Test [1] concerns C. albicans ATCC 90028. It counts as cell-based, Candida albicans. Conditions: for MIC: Candida albicans, ATCC90028. On the procedure: (§1) The extended panel contained four Candida and two Cryptococcus strains (Table 1).
(§2) Antifungal data collection: Fungi strains were cultured for 3 days on yeast extract‐peptone dextrose (YPD) agar at 30 °C. A yeast suspension of 1×10^6 to 5×10^6 CFU mL^−1 (as determined by OD530) was prepared from five colonies. The suspension was diluted in supplemented YNB and added to each well of the compound‐containing plates giving a final cell density of fungi suspension of 2.5×10^3 CFU mL^−1 and 2 % DMSO. All plates were covered and incubated at 35 °C for 36 h without shaking.
(§3) Two biological replicates x2 technical replicates were conducted on separate days (final n=4).
(§4) Growth inhibition of C. albicans, C. tropicalis and C. glabrata was determined by measuring absorbance at 630 nm (OD630), while the growth inhibition of Cryptococcus spp. and C. auris was determined by measuring the difference in absorbance between 600 and 570 nm (OD600‐570), after the addition of resazurin (0.01 % final concentration) and incubation at 35 °C for 2 h. The absorbance was measured using a Biotek Multiflo Synergy HTX plate reader.
(§5) The percentage of growth inhibition was calculated for each well, using the negative control (media only) and positive control (fungi without inhibitors) on the same plate. […] In addition, the maximal percentage of growth inhibition is reported as D Max, indicating any compounds with marginal activity.

Test [2] deals with C. neoformans ATCC 208821. The class given is cell-based, Cryptococcus neoformans. On the procedure: as §1, §2, §3, §4, §5
In test [3] the test system is Candida tropicalis ATCC 750. The class given is cell-based. On the procedure:
as §1, §2, §3, §4, §5

In test [4] the test system is C. glabrata ATCC 90030. It counts as cell-based, Candida glabrata. Here is the method: as §1, §2, §3, §4, §5
Test [5] relates to C. deuterogattii ATCC 32609. The class given is cell-based, Cryptococcus deuterogattii. On the procedure: as §1, §2, §3, §4, §5
In test [6] the test system is C. auris CBS10913. The class given is cell-based, Candida auris. Here is the method: as §1, §2, §3, §4, §5

Where two headings read alike, the source gives them in different places.

Consider 1 compound from publication PMC10947176, “The Antimicrobial Properties of Pd^II− and Ru^II−pyta Complexes” (Chembiochem, 2023).

Broadly, the MIC is the smallest concentration in the dilution series that meets the test's criterion for growth inhibition.

As to `OC(Cn1cncn1)(Cn1cncn1)c1ccc(F)cc1F` [fluconazole], the MIC was 0.816 to 1.63 µM in test [1] (Table S3, Table 1 values in µM, read-out: MIC, Candida albicans ATCC 90028); 0.25 to 0.5 µg/mL in test [1] (range of MICs, n=4, read-out: MIC, C. albicans ATCC 90028); 26.1 µM in test [2] (Cryptococcus neoformans, ATCC208821, Table S3, Table 1 values in µM, read-out: MIC, Cryptococcus neoformans ATCC 208821); 8 µg/mL in test [2] (Cryptococcus neoformans, ATCC208821, range of MICs, n=4, read-out: MIC, C. neoformans ATCC 208821); 26.1 µM in test [2] (second Table S4, free ligands, read-out: MIC, Cryptococcus neoformans ATCC 208821); 13.1 µM in test [3] (Candida tropicalis, ATCC750, Table S3, Table 1 values in µM). Besides, the minimal inhibitory concentration (MIC) in test [3] (Candida tropicalis, ATCC750, range of MICs, n=4) is 4 µg/mL; in test [3] (second Table S4, free ligands) it was 13.1 µM; in test [4] (Nakaseomyces glabratus, ATCC90030, Table S3, Table 1 values in µM, read-out: MIC, Candida glabrata ATCC 90030), more than 104 µM; in test [4] (Nakaseomyces glabratus, ATCC90030, range of MICs, n=4, read-out: MIC, C. glabrata ATCC 90030) it was more than 32 µg/mL; in test [4] (second Table S4, free ligands, read-out: MIC, Candida glabrata ATCC 90030) it was more than 104 µM; in test [5] (Cryptococcus deuterogattii, ATCC32609, Table S3, Table 1 values in µM, read-out: MIC, Cryptococcus deuterogattii ATCC 32609), more than 104 µM. For the same compound, the minimum inhibitory concentration (MIC) was more than 32 µg/mL in test [5] (Cryptococcus deuterogattii, ATCC32609, range of MICs, n=4, read-out: MIC, C. deuterogattii ATCC 32609); more than 104 µM in test [5] (second Table S4, free ligands, read-out: MIC, Cryptococcus deuterogattii ATCC 32609); more than 104 µM in test [6] (Candidozyma auris, CBS10913, Table S3, Table 1 values in µM, read-out: MIC, Candida auris CBS10913); not below 32 µg/mL in test [6] (Candidozyma auris, CBS10913, range of MICs, n=4, read-out: MIC, C. auris CBS10913); more than 104 µM in test [6] (second Table S4, free ligands, read-out: MIC, Candida auris CBS10913). The “MIC, Candida albicans ATCC 90028” value in test [1] (second Table S4, free ligands) is 0.816 to 1.63 µM.
